From US8859541B2, “6-alkynylpyridines” (Boehringer Ingelheim International GmbH, priority 2012, dated 2014)

Biological target: T1, XIAP BIR3 (Homo sapiens, UniProt P98170)
T1 construct: covering amino acids 241 to 356; XIAP BIR3; made in house; host or cells: E. coli
Test: XIAP BIR3 binding assay (DELFIA), displacement of SMAC peptide
Conditions: GST-fusion BIR3 domain (aa 241 to 356) 10 nM, SMAC peptide 10 nM; activity of the (S)-isomers
Experimental: Biological Methods XIAP BIR3 and cIAP1 BIR3 Binding Assays (DELFIA)
Peptide […]-Lys(Biotin), representing the N-terminus of mature human SMAC (SMAC peptide), was used as interaction partner in the protein-peptide interaction assay.
BIR3 domains (10 nM) were incubated with SMAC peptide (10 nM) in Assay Buffer (50 mM Tris, 120 mM NaCl, 0.1% BSA, 1 mM DTT, 0.05% TritonX100) for one hour at room temperature in the presence of inhibitiory compounds. The assay mixture was transferred to a strepatvidin coated plate and incubated for one hour at room temperature to allow binding of the biotinylated peptide and associated BIR3 domains to the plate. After several washing steps Eu labeled anti-GST antibody (e.g. Perkin Elmer DELFIA Eu-N1-antiGST AD0250) was added to detect BIR3 domain-SMAC peptide interactions according to Perkin Elmer's instructions. […] Time resolved Europium fluoresecence was measured in a Wallac Victor using Standard assay settings.
DELFIA assay results were plotted against compound concentrations and Software GraphPad Prizm was used to calculate half maximal inhibitory concentrations (IC50 values).

T1 sequence (P98170 241-356): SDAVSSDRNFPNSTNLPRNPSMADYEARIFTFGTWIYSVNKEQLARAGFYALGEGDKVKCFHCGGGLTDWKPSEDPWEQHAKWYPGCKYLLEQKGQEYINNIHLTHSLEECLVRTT

CNC(=O)c1ccc(C#Cc2nc(NC(=O)C(C)NC)ccc2-c2c(C)nc3ccccn23)cn1 (stereo not shown) [Example 62, N-methyl-5-[2-[6-[[2-(methyl-amino)propanoyl]amino]-3-(2-methylimidazo[1,2-a]pyridin-3-yl)pyridin-2-yl]ethynyl]pyridine-2-carboxamide]
IC50: 620 nM

CNC(C)C(=O)Nc1ccc(-c2c(C)nc3ccccn23)c(C#Cc2ccc(-c3ccc(OC)cc3)cc2)n1 (stereo not shown) [Example 65, N-[6-[2-[4-(4-methoxyphenyl)-phenyl]ethynyl]-5-(2-methyl-imidazo[1,2-a]pyridin-3-yl)-pyridin-2-yl]-2-(methylamino)-propanamide]
IC50: 1190 nM

CNC(C)C(=O)Nc1ccc(-c2c(C)nc3ccccn23)c(C#Cc2nc3ccccc3s2)n1 (stereo not shown) [Example 67, N-[6-[2-(1,3-benzothiazol-2-yl)-ethynyl]-5-(2-methyl-imidazo[1,2-a]pyridin-3-yl)-pyridin-2-yl]-2-(methylamino)-propanamide]
IC50: 270 nM

CNC(C)C(=O)Nc1ccc(-c2c(C)nc3cnccn23)c(C#Cc2ccc3ncccc3c2)n1 (stereo not shown) [Example 68, 2-(methylamino)-N-[5-(2-methylimidazo[1,2-a]pyrazin-3-yl)-6-(2-quinolin-6-ylethynyl)-pyridin-2-yl]propanamide]
IC50: 165 nM

CNC(C)C(=O)Nc1ccc(-c2c(C)nc3ccccn23)c(C#Cc2ccc3nc(OC)ccc3c2)n1 (stereo not shown) [Example 73, N-[6-[2-(2-methoxyquinolin-6-yl)ethynyl]-5-(2-methyl-imidazo[1,2-a]pyridin-3-yl)-pyridin-2-yl]-2-(methylamino)-propanamide]
IC50: 378 nM

CNC(C)C(=O)Nc1ccc(-c2c(C)nc(N(C)C)nc2C)c(C#Cc2ccc3ncccc3c2)n1 (stereo not shown) [Example 76, N-[5-[2-(dimethylamino)-4,6-dimethylpyrimidin-5-yl]-6-(2-quinolin-6-ylethynyl)pyridin-2-yl]-2-(methylamino)propan-amide]
IC50: 1070 nM

CNC(C)C(=O)Nc1ccc(-c2c(C)nc(N3CCOCC3)nc2C)c(C#Cc2ccc3cnccc3c2)n1 (stereo not shown) [Example 83, N-[5-(4,6-dimethyl-2-morpholin-4-ylpyrimidin-5-yl)-6-(2-isoquinolin-6-ylethynyl)-pyridin-2-yl]-2-(methylamino)-propanamide]
IC50: 446 nM

CNC(C)C(=O)Nc1ccc(-c2c(C)nc3ccccn23)c(C#Cc2ccc(F)c3ncccc23)n1 (stereo not shown) [Example 84, N-[6-[2-(8-fluoroquinolin-5-yl)-ethynyl]-5-(2-methyl-imidazo[1,2-a]pyridin-3-yl)-pyridin-2-yl]-2-(methylamino)-propanamide]
IC50: 130 nM

CNC(C)C(=O)Nc1ccc(-c2c(C)nc3ccccn23)c(C#Cc2ccc(OC)c3ncccc23)n1 (stereo not shown) [Example 85, N-[6-[2-(8-methoxyquinolin-5-yl)ethynyl]-5-(2-methyl-imidazo[1,2-a]pyridin-3-yl)-pyridin-2-yl]-2-(methylamino)-propanamide]
IC50: 259 nM

CNC(C)C(=O)Nc1ccc(-c2c(C)nc(N3CCOCC3)nc2C)c(C#Cc2ccc(-c3cccnc3)cc2)n1 (stereo not shown) [Example 86, N-[5-(4,6-dimethyl-2-morpholin-4-ylpyrimidin-5-yl)-6-[2-(4-pyridin-3-ylphenyl)-ethynyl]pyridin-2-yl]-2-(methyl-amino)propanamide]
IC50: 770 nM

CNC(C)C(=O)Nc1ccc(-c2c(C)nc3ccccn23)c(C#Cc2ccc(-c3ccncc3)cc2)n1 (stereo not shown) [Example 91, 2-(methylamino)-N-[5-(2-methylimidazo[1,2-a]pyridin-3-yl)-6-[2-(4-pyridin-4-ylphenyl)-ethynyl]pyridin-2-yl]propan-amide]
IC50: 267 nM

CNC(C)C(=O)Nc1ccc(-c2c(C)noc2C)c(C#Cc2ccc3cnccc3c2)n1 (stereo not shown) [Example 97, N-[5-(3,5-dimethyl-1,2-oxazol-4-yl)-6-(2-isoquinolin-6-ylethynyl)pyridin-2-yl]-2-(methylamino)propanamide]
IC50: 644 nM

CNC(C)C(=O)Nc1ccc(-c2cnc3ccccc3c2)c(C#Cc2ccc3ccccc3c2)n1 (stereo not shown) [Example 98, 2-(methylamino)-N-[6-(2-naphthalen-2-ylethynyl)-5-quinolin-3-yl-pyridin-2-yl]propanamide]
IC50: 526 nM

CC(N)C(=O)Nc1ccc(-c2cccc(C(=O)O)c2)c(C#Cc2ccccc2)n1 (stereo not shown) [Example 99, 3-[6-(2-aminopropanoylamino)-2-(2-phenylethynyl)pyridin-3-yl]-benzoic acid]
IC50: 521 nM

CC(N)C(=O)Nc1ccc(-c2cccnc2)c(C#Cc2ccccc2)n1 (stereo not shown) [Example 101, 2-amino-N-[6-(2-phenylethynyl)-5-pyridin-3-ylpyridin-2-yl]-propanamide]
IC50: 128 nM

CC(N)C(=O)Nc1ccc(-c2ccccc2F)c(C#Cc2ccccc2)n1 (stereo not shown) [Example 102, 2-amino-N-[5-(2-fluorophenyl)-6-(2-phenylethynyl)pyridin-2-yl]-propanamide]
IC50: 1980 nM

CC(N)C(=O)Nc1ccc(-c2c(Cl)cccc2Cl)c(C#Cc2ccccc2)n1 (stereo not shown) [Example 103, 2-amino-N-[5-(2,6-dichlorophenyl)-6-(2-phenyl-ethynyl)pyridin-2-yl]propanamide]
IC50: 3040 nM

Cc1cccc(C)c1-c1ccc(NC(=O)C(C)N)nc1C#Cc1ccccc1 (stereo not shown) [Example 104, 2-amino-N-[5-(2,6-dimethyl-phenyl)-6-(2-phenylethynyl)-pyridin-2-yl]propanamide]
IC50: 2020 nM

CC(N)C(=O)Nc1ccc(-c2cncnc2)c(C#Cc2ccccc2)n1 (stereo not shown) [Example 105, 2-amino-N-[6-(2-phenylethynyl)-5-pyrimidin-5-ylpyridin-2-yl]-propanamide]
IC50: 220 nM

CC(N)C(=O)Nc1ccc(-c2cncc(F)c2)c(C#Cc2ccccc2)n1 (stereo not shown) [Example 106, 2-amino-N-[5-(5-fluoropyridin-3-yl)-6-(2-phenylethynyl)pyridin-2-yl]propanamide]
IC50: 243 nM

CC(N)C(=O)Nc1ccc(-c2ccccc2)c(C#Cc2ccccc2)n1 (stereo not shown) [Example 107, 2-amino-N-[5-phenyl-6-(2-phenylethynyl)pyridin-2-yl]-propanamide]
IC50: 1010 nM

CC(N)C(=O)Nc1ccc(-c2ccccc2C#N)c(C#Cc2ccccc2)n1 (stereo not shown) [Example 109, 2-amino-N-[5-(2-cyanophenyl)-6-(2-phenylethynyl)pyridin-2-yl]-propanamide]
IC50: 650 nM

CC(N)C(=O)Nc1ccc(-c2ccccc2C(F)(F)F)c(C#Cc2ccccc2)n1 (stereo not shown) [Example 110, 2-amino-N-[6-(2-phenylethynyl)-5-[2-(trifluoromethyl)phenyl]-pyridin-2-yl]propanamide]
IC50: 3190 nM

CC(N)C(=O)Nc1ccc(-c2cc(F)cc(F)c2)c(C#Cc2ccccc2)n1 (stereo not shown) [Example 111, 2-amino-N-[5-(3,5-difluorophenyl)-6-(2-phenyl-ethynyl)pyridin-2-yl]propanamide]
IC50: 1550 nM

CC(N)C(=O)Nc1ccc(-c2ccc(-c3ccc(F)cc3)nc2)c(C#Cc2ccccc2)n1 (stereo not shown) [Example 112, 2-amino-N-[5-[6-(4-fluorophenyl)pyridin-3-yl]-6-(2-phenylethynyl)pyridin-2-yl]-propanamide]
IC50: 1070 nM

CC(N)C(=O)Nc1ccc(-c2cccc(F)c2)c(C#Cc2ccccc2)n1 (stereo not shown) [Example 114, 2-amino-N-[5-(3-fluorophenyl)-6-(2-phenylethynyl)pyridin-2-yl]-propanamide]
IC50: 1630 nM

CC(N)C(=O)Nc1ccc(-c2cc(F)cc(C(F)(F)F)c2)c(C#Cc2ccccc2)n1 (stereo not shown) [Example 115, 2-amino-N-[5-[3-fluoro-5-(trifluoromethyl)phenyl]-6-(2-phenylethynyl)pyridin-2-yl]-propanamide]
IC50: 2040 nM

CNC(C)C(=O)Nc1ccc(-c2ccccc2Cl)c(C#Cc2ccccc2)n1 (stereo not shown) [Example 116, N-[5-(2-chlorophenyl)-6-(2-phenylethynyl)pyridin-2-yl]-2-(methylamino)propanamide]
IC50: 1770 nM

CNC(C)C(=O)Nc1ccc(-c2cc(C#N)ccc2Cl)c(C#Cc2ccccc2)n1 (stereo not shown) [Example 117, N-[5-(2-chloro-5-cyanophenyl)-6-(2-phenylethynyl)pyridin-2-yl]-2-(methylamino)propanamide]
IC50: 406 nM

CNC(C)C(=O)Nc1ccc(Cc2ccccc2)c(C#Cc2ccccc2)n1 (stereo not shown) [Example 119, N-[5-benzyl-6-(2-phenylethynyl)pyridin-2-yl]-2-(methylamino)-propan-amide]
IC50: 327 nM

CNC(C)C(=O)Nc1ccc(-c2cncc(C(=O)O)c2)c(C#Cc2ccccc2)n1 (stereo not shown) [Example 120, 5-[6-[[2-(methylamino)-propanoyl]amino]-2-(2-phenyl-ethynyl)pyridin-3-yl]pyridine-3-carboxylic acid]
IC50: 185 nM

CCc1ccccc1-c1ccc(NC(=O)C(C)NC)nc1C#Cc1ccccc1 (stereo not shown) [Example 124, N-[5-(2-ethylphenyl)-6-(2-phenyl-ethynyl)pyridin-2-yl]-2-(methyl-amino)propanamide]
IC50: 2840 nM

CNC(C)C(=O)Nc1ccc(-c2cncc(N)c2)c(C#Cc2ccccc2)n1 (stereo not shown) [Example 128, N-[5-(5-aminopyridin-3-yl)-6-(2-phenylethynyl)pyridin-2-yl]-2-(methylamino)propanamide]
IC50: 101 nM

CNC(C)C(=O)Nc1ccc(-c2cc(C(=O)OC)ccc2OC)c(C#Cc2ccccc2)n1 (stereo not shown) [Example 131, methyl 4-methoxy-3-[6-[[2-(methylamino)propanoyl]amino]-2-(2-phenylethynyl)pyridin-3-yl]-benzoate]
IC50: 305 nM
